# In US20120238019A1, “STEM CELL CULTURE MEDIA FOR MAINTAINING STEMNESS OR INDUCING DIFFERENTIATION OF STEM CELLS” (COLLEGE OF MEDICINE POCHON CHA UNIVERSITY INDUSTRY-ACADEMIC …, priority 2011, published 2012):
# Assays:
# [1] = system: human embryonic stem cells (CHA6 cell line); assay: Evaluation of stemness of stem cells cultured in MEF medium (differentiation-inducing) containing PKC inhibitor; format: cell-based; conditions: 5 to 7 days
# Procedure: (§1) Colony clumps (5 colony clumps) of human embryonic stem cells (CHA6 cell line, CHA Medical University, Korea) were seeded to each wells of a 96-well plate coated with Matrigel (BD Biosciences, USA). A differentiation-inducing medium, i.e., MEF medium [Dulbecco's Modified Eagle Medium (DMEM) containing high glucose (WeIGENE, Korea) supplemented with 10% (v/v) FBS (WeIGENE, Korea), 1% (v/v) Penicillin/streptomycin (Caisson), 1% (v/v) NEAA (GIBCO), 0.1 mM beta-mercaptoethanol (GIBCO)], was added to the each wells, which were then cultured at about 37° C., in about 5.0% CO2 incubator. The culture was performed for 5 to 7 days, while replacing the medium with a new medium containing 5 uM of 3-[1-[3-(dimethylamino)propyl]-5-methoxy-1H-indol-3-yl]-4-(1H-indol-3-yl)-1H-pyrrole-2,5-dione)(Gö6983, Calbiochem) as a PKC inhibitor, everyday.
# As a control, human embryonic stem cells were cultured in the MEF medium without the PKC inhibitor. And also, human embryonic stem cells were cultured in a differentiation-inhibiting medium, i.e., mTeSR-1 medium containing bFGF, TGF-beta, LiCl, GABA, and pipecolic acid (StemCell Technologies, USA). […]
# [2] = system: human embryonic stem cells (CHA6 cell line); assay: Evaluation of stemness of stem cells cultured in non-conditioned medium containing PKC inhibitor; format: cell-based
# Procedure: as §1, with “The culture was performed for 5 to 7 days, while replacing the medium with a new medium containing 5 uM of 3-[1-[3-(dimethylamino)propyl]-5-methoxy-1H-indol-3-yl]-4-(1H-indol-3-yl)-1H-pyrrole-2,5-dione)(Gö6983, Calbiochem) as a PKC inhibitor, everyday.” left out
# Evaluations of stemness were also performed in accordance with the same procedures as in the above (1), using a non-conditioned medium [DMEM/F-12 high-glucose (GIBCO) supplemented with 20% (v/v) knockout serum replacement (GIBCO), 1% (v/v) Penicillin/streptomycin (Caisson), 1% (v/v) NEAA(GIBCO), and 0.1 mM beta-mercaptoethanol (GIBCO)], instead of the MEF medium. In addition, expression levels of Oct4 (Octamer Binding Transcription Factor-4), which is another un-differentiated cell marker, were also evaluated through immunostaining with antibody against Oct4.
# [3] = system: human embryonic stem cells (CHA6 cell line); assay: Evaluation of differentiation of stem cells cultured in mTeSR-1 medium containing PKC activator; format: cell-based
# Procedure: Colony clumps (5 colony clumps) of human embryonic stem cells (CHA6 cell line, CHA Medical University, Korea) were seeded to each wells of a 96-well plate coated with Matrigel (BD Biosciences, USA). A undifferentiation-maintaining medium, i.e., mTeSR-1 medium containing bFGF, TGF-beta, LiCl, GABA, and pipecolic acid (StemCell Technologies, USA), was added to the each wells, which were then cultured at about 37° C., in about 5.0% CO2 incubator. The culture was performed for 5 to 7 days, while replacing the medium with a new medium containing 10 nM of 12-O-tetradecanoylphorbol-13-acetate (TPA) as a PKC activator, everyday. As a control, human embryonic stem cells were cultured in the mTeSR-1 medium without the PKC activator. And also, human embryonic stem cells were cultured in the mTeSR-1 medium treated with both 10 nM of TPA and 5 uM of Go6983.
# The cells cultured in the mTeSR-1 medium formed colony shapes, which were conglomerating each other, without differentiation (a in FIG. 3).
# As a result of alkaline phosphatase staining, the staining level and colony shape of the cells cultured in the mTeSR-1 medium were similar to those of undifferentiated stem cells (d in FIG. 3).
# [4] = system: human embryonic stem cells (CHA6 cell line); assay: Evaluation of differentiation of stem cells in other undifferentiation-maintaining mediums containing PKC activator; format: cell-based; conditions: FIG. 4
# Procedure: Colony clumps (5 colony clumps) of human embryonic stem cells (CHA6 cell line, CHA Medical University, Korea) were seeded to each wells of a 96-well plate coated with Matrigel (BD Biosciences, USA). […] The culture was performed for 5 to 7 days, while replacing the medium with a new medium containing 10 nM of 12-O-tetradecanoylphorbol-13-acetate (TPA) as a PKC activator, everyday. […]
# Evaluations of differentiation were also performed in accordance with the same procedures as in the above (1), using other undifferentiation-maintaining mediums, [i.e., Matrigel (extracellular matrix)/MEF-conditioned medium (Home made; Serum-free media [80% (v/v) DMEM/F12 (GIBCO), 20% (v/v) Knockout serum replacement (GIBCO), 1% (v/v) MEM non-essential amino acids (GIBCO), 0.1 mM β-mercaptoethanol (GIBCO), 1% (v/v) Pennicillin/streptomycin (Caisson)] was conditioned by γ-irradiated CF-1 mouse embryonic fibroblasts (MEF) at 37° C. for 24 hours) and CELLstart (extracellular matrix) (Invitrogen)/and STEMPRO (Invitrogen)], […] In addition, differentiation of other hESC, i.e., H9 hESC line (WiCell, Wis., USA) was also evaluated in the Matrigel (extracellular matrix)/MEF-conditioned medium with a PKC activator.
# [5] = system: H9 hESC line; assay: Evaluation of differentiation of H9 hESC line in Matrigel/MEF-conditioned medium with PKC activator; format: cell-based, human; conditions: FIG. 4
SMILES,"shape, existence and distribution of the cells (optical microscope, nucleus-staining with DAPI) ([1]; 5 uM PKC inhibitor replaced everyday, Matrigel-coated, FIG. 1 a-f)","alkaline phosphatase expression level (un-differentiated cell marker, staining) ([1]; 5 uM PKC inhibitor, FIG. 1 g-i)","alkaline phosphatase expression level ([2]; NCM containing Gö6983, FIG. 2A f)","Oct4 expression level (immunostaining) ([2]; NCM containing Gö6983, FIG. 2B c)","cell shape under co-treatment with PKC activator (inhibition of TPA-induced differentiation) ([3]; mTeSR-1 medium treated with both 10 nM TPA and 5 uM Gö6983, FIG. 3 c and f)","differentiation, shape and distribution of the cells (optical microscope) ([3]; mTeSR-1 medium, 10 nM TPA replaced everyday, 5 to 7 days, FIG. 3 b)","alkaline phosphatase staining level ([3]; mTeSR-1 medium, 10 nM TPA, FIG. 3 e)",induction of differentiation of hESCs ([4]; CELLstart/STEMPRO medium with PKC activator),induction of differentiation of hESCs ([4]; Matrigel/MEF-conditioned medium with PKC activator),induction of differentiation of hESCs [5]
"COc1ccc2c(c1)c(C1=C(c3c[nH]c4ccccc34)C(=O)NC1=O)cn2CCCN(C)C [Gö6983, 3-[1-[3-(dimethylamino)propyl]-5-methoxy-1H-indol-3-yl]-4-(1H-indol-3-yl)-1H-pyrrole-2,5-dione]","maintained colony shapes, which were conglomerating each other",significant increase in alkaline phosphatase expression level,significant increases,significant increases,shapes similar to undifferentiated stem cells,,,,,
"CCCCCCCCCCCCCC(=O)O[C@@H]1[C@@H](C)[C@@]2(O)[C@@H](C=C(CO)C[C@]3(O)C(=O)C(C)=C[C@@H]23)[C@@H]2C(C)(C)[C@]12OC(C)=O [TPA, 12-O-tetradecanoylphorbol-13-acetate]",,,,,,differentiated and broadly distributed,very low alkaline phosphatase staining level,induced differentiation of hESCs,induced differentiation of hESCs,induction of differentiation by the PKC activator was also observed
